Reference: patent publication US20090270373A1, “TREATMENT OF DOWN SYNDROM WITH BENZODIAZEPINE RECEPTOR ANTAGONISTS” (Cypress Biosciences, Inc., priority 2008, published 2009)

Columns and labels:
benzodiazepine receptors = details: cited from earlier work
Ts65Dn mice [1] = assay: Modified spontaneous alternation task (T-maze) in Ts65Dn mice (paper Examples 1 and 2); type: in vivo, mouse; details: 5 to 30 doses, 3 mg/kg in milk orally or 1 mg/kg i.p.
Description: (§1) Flumazenil may also be tested for its effects on declarative memory in the novel object recognition test and in a modified spontaneous alternation task. Wild-type and Ts65Dn mice may be administered flumazenil (3 mg/kg in milk via voluntary oral feeding or 1 mg/kg i.p.). The wild-type and Ts65Dn mice are administered from 5 to 30 doses of milk or milk-flumazenil (or saline or flumazenil solution i.p.). The mice are then subjected to two repetitions of novel object recognition testing or three daily T-maze sessions at the tail end of the treatment regimen. […] Comparison of treated and untreated Ts65Dn mice will provide controls for any possible arm bias in the spontaneous alternation task.
as §1, with “Bretazenil may” for “Flumazenil may”, “administered bretazenil” for “administered flumazenil”

Ts65Dn mice [2] = assay: Long-term potentiation (LTP) in the dentate gyrus of Ts65Dn mice (paper Examples 1 and 2); type: in vivo, mouse; details: about 1 month after cessation of drug treatment
Description: Since the ability of animals to learn and remember is thought to be encoded at the synaptic level, and involves the ability of synapses to undergo long-term changes in synapse strength, long-term potentiation (LTP) in the dentate gyrus may be evaluated.

[3] = of the intravenous bioavailability; cited from earlier work
WT mice = assay: Novel object recognition assay (Discrimination Index) in WT mice; type: in vivo, mouse
Description: (§2) Following baseline determinations and group assignments, WT and Ts65Dn mice received intraperitoneal (i.p.) injections once/day (08:00) for the two-week duration of the drug treatment regimen (FIG. 1). Drugs were dissolved in physiological saline. Two drops of Tween 80 were used to facilitate solution formation for flumazenil. Picrotoxin was initially made up at 50× concentration in 20% ethanol and then diluted down to a […] solution with 0.4% ETOH in saline. Doses of drugs were based on previous behavioral research in mice (1 mg/kg for PTX and 10 mg/kg for flumazenil). Injections were given in a volume of 10 ml/kg. A vehicle control was run along side the treatment groups (0.4% ETOH in saline).
(§3) FIG. 1 graphically depicts the protocol. After habituation to the animal facility, mice were tested for baseline behaviors in the open-field locomotor assay (LMA)(30 min session) and the novel object recognition assay. Primary experimental groups were divided by genotype (Ts65Dn mice and wild-type control littermates). These two groups were further divided into drug treatments (vehicle, PTX and flumazenil) with a targeted n-size of 8 mice/group (24 WT and 24 Ts65Dn mice total). The group assignments were made in a semi-random process due to constraints in animal availability (staggered shipping) and choice of initial treatment groups (e-mail documentation between Bilsky laboratory and Cypress Bioscience on file). Daily morning injections began on Day 1 and went through the morning of Day 14. On Days 7/8 and 14/15 (13:00) mice were tested in the behavioral assay. Mice were kept for an additional two weeks and re-tested on Days 21/22 and 28/29 to assess the duration of the drug treatment effect.
(§4) The novel object recognition task is based on the innate tendency of rodents to differentially explore novel objects over familiar ones. The task is well validated for evaluating rodent memory and the effects of drug treatments on learning/memory performance.
(§5) Mice were trained and tested once per week, each experimental session separated by a one-week interval. Mice were submitted to daily handling sessions, and given an opportunity to habituate to an open field arena (48 cm×48 cm wide×25 cm), where they were exposed to two different objects (complex protocol), during a 5-minute training session. Objects were made from various non-porous materials that differ in shape and color. Mice were unable to climb onto the objects and the objects were generally consistent in height and volume, and were roughly symmetrical on a horizontal plane. Objects were positioned in two corners of the apparatus. To control for odor cues, the open field arena and the objects are thoroughly cleaned with 90% ethanol, dried, and ventilated for a few minutes between mice.
(§6) A 5-minute testing session was conducted 24 h after training. Here, the mice were presented with the object they had explored the previous day, and a new item (the objects being alternatively positioned in one corner or another in a balanced fashion within a given week, and from one week to another). […]

Ts65Dn mice [4] = assay: Novel object recognition assay (Discrimination Index) in Ts65Dn mice, model of Down syndrome; type: in vivo, mouse
Description: as §2, §3, §4, §5, §6

WT and Ts65Dn mice = assay: Open-field locomotor assay (LMA), 30 min session; type: in vivo, mouse; details: WT and Ts65Dn mice
Description: as §2, §3
General levels of arousal, locomotor activity and anxiety were assessed using an automated open-field activity monitoring system (Coulbourn Instruments with TruScan software). The open field test that were run were fully automated assays that quantified many different aspects and patterns of movement, including total distance traveled, time spent moving, rearing, and various stereotypic patterns of activity. The software calculates the time spent in the middle portions of the open field versus the outer zones alongside the outside walls. These variables can be used as one measure of general anxiety levels.
Mice were placed into an open field (26 cm×26 cm) in a brightly lit room. Two sensor rings (x-y plane and a vertical z plane) generate an array of infrared beams that surround the chamber. The pattern of beam breaks was recorded and the data fed into a personal computer. The TruScan software interpreted the beam breaks to calculate the movement variables and patterns of activity, with a temporal resolution of 100 msec. A 30 minutes session was used for assessment of the mice on Day 0 (Baseline) and then on Days 1, 7, 14, 21 and 28. Data were exported into an Excel spreadsheet, graphed and analyzed using parametric and non-parametric statistics.

CCOC(=O)c1ncn2c1CN(C)C(=O)c1cc(F)ccc1-2 [flumazenil, 8-fluoro-5,6-dihydro-5-methyl-6-oxo-4H-imidazo[1,5-a]benzodiazepine-3-carboxylic acid ethyl ester]
antagonism of the effects of diazepam (benzodiazepine receptors; given orally or intravenously): effectively antagonizes | activity at oral dosing (benzodiazepine receptors; oral 30 to 100 mg, normal adult human subjects): partial benzodiazepine agonist | spontaneous alternation (Ts65Dn mice [1]): normal levels of alternation | LTP in the dentate gyrus (Ts65Dn mice [2]): Normalized LTP | oral bioavailability [3]: approximately 20% | Discrimination Index (DI) (WT mice; Week 2 of drug therapy, versus vehicle): no differences | Discrimination Index (DI) (WT mice; Week 4 (2 weeks post dosing)): slight negative DI | Discrimination Index (DI) (Ts65Dn mice [4]; Week 1 of drug therapy, PTX 1 mg/kg, flumazenil 10 mg/kg i.p.): positive effects | Discrimination Index (DI) (Ts65Dn mice [4]; Week 2 of drug therapy): positive effects | effect in the object recognition assay as compared to vehicle (Ts65Dn mice [4]; flumazenil 10 mg/kg i.p., conclusion): beneficial effect | LMA vertical rearing (WT and Ts65Dn mice; PTX during drug administration phases, flumazenil over the 4 week testing regimen): least effect | LMA marginal distance traveled (WT and Ts65Dn mice; across sessions, PTX 1 mg/kg, flumazenil 10 mg/kg i.p.): very little habituation across sessions
